Laboratory results: the supplement of paper PMC6045584
± gives the standard deviation of the averaged measurements.

Columns and labels:
[1] = compound: O=c1[nH]cc(F)c(=O)[nH]1 [FLUOROURACIL]; test: surviving fraction relative to DMSO-only wells; higher = less growth inhibition; details: exposure time: 5 days
Procedure, shortened: (§1)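 Continuous five-day exposure to inhibitors at 0.5, 1, 5, 10, 50, 100, 500 and 1000 nM started 24 hours after log-phase tumour cell lines were seeded at 250–500 cells per well in 384-well plates. Luminescence was read after 10 minutes at room temperature. Viability is given as surviving fraction, meaning CellTiter-Glo luminescence normalised to the median of DMSO-only wells.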

[2] = compound: CN(C)CC[C@H](CSc1ccccc1)Nc1ccc(S(=O)(=O)NC(=O)c2ccc(N3CCN(Cc4ccccc4-c4ccc(Cl)cc4)CC3)cc2)cc1[N+](=O)[O-] [ABT-737]; test: as above; details: exposure time: 5 days
Procedure, shortened: as §1

Row | Test System | surviving fraction ([1]; 0.5 nM) | surviving fraction ([1]; 1 nM) | surviving fraction ([1]; 5 nM) | surviving fraction ([1]; 10 nM) | surviving fraction ([1]; 50 nM) | surviving fraction ([1]; 100 nM) | surviving fraction ([1]; 500 nM) | surviving fraction ([1]; 1000 nM) | surviving fraction ([2]; 0.5 nM) | surviving fraction ([2]; 1 nM) | surviving fraction ([2]; 5 nM) | surviving fraction ([2]; 10 nM) | surviving fraction ([2]; 50 nM) | surviving fraction ([2]; 100 nM) | surviving fraction ([2]; 500 nM) | surviving fraction ([2]; 1000 nM)
1 | MDAMB436 BREAST | 0.937 ± 0.046 | 0.921 ± 0.063 | 0.964 ± 0.12 | 0.846 ± 0.11 | 0.84 ± 0.12 | 0.815 ± 0.029 | 0.722 ± 0.031 | 0.625 ± 0.013 | 0.985 ± 0.085 | 1.09 ± 0.041 | 1.05 ± 0.14 | 0.972 ± 0.16 | 0.998 ± 0.1 | 1.14 ± 0.31 | 0.961 ± 0.17 | 0.962 ± 0.083
2 | MDAMB453 BREAST | 1.01 ± 0.092 | 1.01 ± 0.13 | 1.06 ± 0.11 | 0.987 ± 0.079 | 0.979 ± 0.035 | 0.968 ± 0.016 | 0.795 ± 0.026 | 0.706 ± 0.009 | 1.07 ± 0.046 | 1.08 ± 0.083 | 1.1 ± 0.047 | 1.13 ± 0.067 | 1.09 ± 0.036 | 1.1 ± 0.055 | 1.07 ± 0.057 | 1 ± 0.047
3 | MDAMB468 BREAST | 0.887 ± 0.039 | 0.885 ± 0.095 | 0.919 ± 0.064 | 0.89 ± 0.058 | 0.881 ± 0.12 | 0.816 ± 0.06 | 0.859 ± 0.076 | 0.706 ± 0.097 | 1.14 ± 0.06 | 1.08 ± 0.018 | 1.08 ± 0.037 | 1.11 ± 0.066 | 1.1 ± 0.045 | 1.11 ± 0.11 | 1.08 ± 0.03 | 1.09 ± 0.12
4 | MFM223 BREAST | 1.14 ± 0.21 | 1.12 ± 0.17 | 1.18 ± 0.22 | 1.096 ± 0.0076 | 0.719 ± 0.014 | 0.772 ± 0.062 | 0.738 ± 0.036 | 0.667 ± 0.032 | 1.39 ± 0.39 | 1.4 ± 0.37 | 1.36 ± 0.35 | 1.52 ± 0.56 | 1.08 ± 0.091 | 1.05 ± 0.14 | 1.05 ± 0.082 | 1.2 ± 0.054
5 | MG63 BONE | 1.02 ± 0.041 | 1 ± 0.028 | 1.05 ± 0.021 | 1.03 ± 0.019 | 1.06 ± 0.024 | 0.99 ± 0.023 | 0.947 ± 0.024 | 0.805 ± 0.013 | 1.08 ± 0.034 | 1.07 ± 0.024 | 1.12 ± 0.047 | 1.1 ± 0.05 | 1.11 ± 0.033 | 1.09 ± 0.058 | 1.07 ± 0.016 | 1.06 ± 0.04
6 | MHM BONE | 1.04 ± 0.07 | 1.02 ± 0.028 | 1.06 ± 0.047 | 1.04 ± 0.039 | 1.084 ± 0.0067 |  | 1.063 ± 0.0092 | 0.974 ± 0.034 | 1.03 ± 0.053 | 1.08 ± 0.062 | 1.07 ± 0.045 | 1.1 ± 0.046 | 1.07 ± 0.034 | 1.15 ± 0.013 | 1.09 ± 0.015 | 1.12 ± 0.015
7 | NCIH441 LUNG | 1.08 ± 0.054 | 1.05 ± 0.076 | 1.06 ± 0.11 | 1.1 ± 0.021 | 0.996 ± 0.16 | 0.95 ± 0.18 | 0.998 ± 0.1 | 0.798 ± 0.11 | 1.19 ± 0.027 | 1.22 ± 0.05 | 1.115 ± 0.0076 | 1.11 ± 0.052 | 1.11 ± 0.045 | 1.12 ± 0.077 | 1.11 ± 0.086 | 1.06 ± 0.15
8 | NOS1 BONE | 1.01 ± 0.032 | 1.01 ± 0.14 | 1.09 ± 0.12 | 1.14 ± 0.11 | 0.91 ± 0.12 | 0.943 ± 0.073 | 0.799 ± 0.065 | 0.694 ± 0.081 | 1.07 ± 0.093 | 1.05 ± 0.085 | 1.32 ± 0.035 | 1.14 ± 0.048 | 1.19 ± 0.092 | 1.14 ± 0.048 | 1.09 ± 0.081 | 1.11 ± 0.17
9 | NY BONE | 0.98 ± 0.029 | 0.923 ± 0.032 | 1.03 ± 0.034 | 1.01 ± 0.028 | 1.07 ± 0.02 | 0.993 ± 0.018 | 0.934 ± 0.025 | 0.821 ± 0.014 | 0.986 ± 0.029 | 1.02 ± 0.032 | 1.09 ± 0.064 | 1.09 ± 0.03 | 1.07 ± 0.012 | 1.071 ± 0.0072 | 0.99 ± 0.017 | 0.957 ± 0.035
10 | OS25HAL BONE | 1 ± 0.062 | 1.01 ± 0.056 | 0.985 ± 0.019 | 0.977 ± 0.014 | 1.05 ± 0.082 | 1.15 ± 0.014 | 0.939 ± 0.032 | 0.808 ± 0.032 | 0.984 ± 0.048 | 1.07 ± 0.035 | 0.975 ± 0.028 | 1.02 ± 0.025 | 1.06 ± 0.082 | 1.12 ± 0.042 | 0.983 ± 0.045 | 0.882 ± 0.076
11 | OSHN BONE | 1.01 ± 0.014 | 0.972 ± 0.029 | 1.061 ± 0.007 | 1.001 ± 0.0042 | 1.007 ± 0.0011 | 0.9777 ± 0.0071 | 0.989 ± 0.014 | 0.875 ± 0.029 | 1.09 ± 0.026 | 1.1 ± 0.018 | 1.08 ± 0.014 | 1.09 ± 0.014 | 1.11 ± 0.028 | 1.11 ± 0.022 | 1.02 ± 0.049 | 0.998 ± 0.035
12 | PCI30 HEADNECK | 0.934 ± 0.056 | 1.06 ± 0.029 | 1.08 ± 0.058 | 1.1 ± 0.058 | 0.97 ± 0.067 | 0.981 ± 0.082 | 0.959 ± 0.06 | 0.931 ± 0.034 | 1.12 ± 0.029 | 1.09 ± 0.061 | 1.09 ± 0.096 | 1.07 ± 0.026 | 1.08 ± 0.023 | 1.13 ± 0.11 | 0.919 ± 0.091 | 0.909 ± 0.022
13 | RDES SOFT TISSUE | 1.09 ± 0.053 | 0.968 ± 0.032 | 1.06 ± 0.047 | 0.912 ± 0.048 | 0.788 ± 0.19 | 0.632 ± 0.01 | 1.3 ± 0.11 | 1.51 ± 0.22 | 1.26 ± 0.093 | 1.17 ± 0.053 | 1.13 ± 0.074 | 0.98 ± 0.036 | 0.765 ± 0.083 | 0.576 ± 0.034 | 0.405 ± 0.037 | 0.385 ± 0.058
14 | S68 BREAST | 1.06 ± 0.15 | 1.14 ± 0.31 | 1.06 ± 0.29 | 1.23 ± 0.21 | 0.87 ± 0.13 | 0.749 ± 0.034 | 0.656 ± 0.16 | 0.465 ± 0.061 | 1.25 ± 0.083 | 1.04 ± 0.045 | 1.04 ± 0.28 | 1.15 ± 0.047 | 1.26 ± 0.41 | 1.14 ± 0.27 | 0.848 ± 0.25 | 0.822 ± 0.14
15 | SAOS2 BONE | 1.04 ± 0.073 | 1.05 ± 0.037 | 1.11 ± 0.046 | 1.09 ± 0.02 | 0.826 ± 0.096 | 0.8 ± 0.17 | 0.758 ± 0.11 | 0.598 ± 0.2 | 1.18 ± 0.037 | 1.18 ± 0.056 | 1.21 ± 0.098 | 1.19 ± 0.082 | 1.27 ± 0.061 | 1.13 ± 0.059 | 1.14 ± 0.12 | 1.08 ± 0.018
16 | SCC003 HEADNECK | 1.02 ± 0.082 | 1.05 ± 0.042 | 1.03 ± 0.024 | 0.965 ± 0.044 | 1.02 ± 0.12 | 0.881 ± 0.036 | 0.6943 ± 0.005 | 0.87 ± 0.13 | 1.11 ± 0.067 | 1.17 ± 0.03 | 1.16 ± 0.032 | 1.09 ± 0.021 | 1.15 ± 0.096 | 1.16 ± 0.1 | 1.19 ± 0.049 | 1.09 ± 0.069
17 | SCC36 HEADNECK | 0.92 ± 0.093 | 0.872 ± 0.052 | 1.06 ± 0.13 | 1.05 ± 0.031 | 0.739 ± 0.095 | 0.775 ± 0.029 | 0.624 ± 0.076 | 0.529 ± 0.047 | 1.08 ± 0.18 | 1.03 ± 0.054 | 1.15 ± 0.028 | 1.13 ± 0.056 | 1.14 ± 0.14 | 1.12 ± 0.061 | 0.897 ± 0.035 | 0.924 ± 0.11
18 | SCC47 HEADNECK | 1.12 ± 0.088 | 1.14 ± 0.026 | 1.22 ± 0.15 | 1.1 ± 0.043 | 1.02 ± 0.048 | 0.945 ± 0.051 | 0.854 ± 0.047 | 0.956 ± 0.057 | 1.14 ± 0.033 | 1.13 ± 0.13 | 1.23 ± 0.09 | 1.25 ± 0.05 | 1.24 ± 0.087 | 1.2 ± 0.055 | 1.1 ± 0.053 | 1.14 ± 0.12
